Laboratory results reported in publication PMC11968819 (Scientific Reports, 2025).

What was measured:
[1] = tested on: human duodenal organoid-derived monolayer model
[2] = human, four-donor-derived monolayer models (Supplementary Fig. 8a)
[3] = tested on: UDP-glucuronosyltransferase (UGT); assay: Raloxifene permeability and metabolizing assay; assay type: in vitro ADME, human; details: 5 μM raloxifene
[4] = biological target: T1, Carboxylesterase 2 (CES2) (Homo sapiens, UniProt O00748); assay: Irinotecan metabolizing assay; assay type: in vitro ADME; details: 10 μM irinotecan, 20 μM loperamide, 3 h
T1 sequence (O00748 27-559): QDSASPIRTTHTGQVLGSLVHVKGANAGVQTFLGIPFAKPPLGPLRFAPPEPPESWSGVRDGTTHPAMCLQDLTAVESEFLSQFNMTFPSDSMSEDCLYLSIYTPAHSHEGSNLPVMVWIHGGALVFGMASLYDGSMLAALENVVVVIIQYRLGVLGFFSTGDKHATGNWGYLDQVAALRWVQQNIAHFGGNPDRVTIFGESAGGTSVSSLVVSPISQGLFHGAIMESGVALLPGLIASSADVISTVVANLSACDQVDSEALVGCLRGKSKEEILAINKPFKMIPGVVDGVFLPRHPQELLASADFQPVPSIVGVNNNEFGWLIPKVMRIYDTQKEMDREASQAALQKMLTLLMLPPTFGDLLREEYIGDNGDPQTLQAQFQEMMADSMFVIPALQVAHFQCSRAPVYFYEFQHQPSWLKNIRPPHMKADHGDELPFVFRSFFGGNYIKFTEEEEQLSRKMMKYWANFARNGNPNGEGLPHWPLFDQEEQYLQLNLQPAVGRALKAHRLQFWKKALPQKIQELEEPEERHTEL

P-gp = P-gp (Homo sapiens, UniProt P08183); assay: Efflux drug transporter assay with digoxin; details: 10 μM digoxin, 10 μM inhibitor
Sequence of P-gp (P08183 whole entry): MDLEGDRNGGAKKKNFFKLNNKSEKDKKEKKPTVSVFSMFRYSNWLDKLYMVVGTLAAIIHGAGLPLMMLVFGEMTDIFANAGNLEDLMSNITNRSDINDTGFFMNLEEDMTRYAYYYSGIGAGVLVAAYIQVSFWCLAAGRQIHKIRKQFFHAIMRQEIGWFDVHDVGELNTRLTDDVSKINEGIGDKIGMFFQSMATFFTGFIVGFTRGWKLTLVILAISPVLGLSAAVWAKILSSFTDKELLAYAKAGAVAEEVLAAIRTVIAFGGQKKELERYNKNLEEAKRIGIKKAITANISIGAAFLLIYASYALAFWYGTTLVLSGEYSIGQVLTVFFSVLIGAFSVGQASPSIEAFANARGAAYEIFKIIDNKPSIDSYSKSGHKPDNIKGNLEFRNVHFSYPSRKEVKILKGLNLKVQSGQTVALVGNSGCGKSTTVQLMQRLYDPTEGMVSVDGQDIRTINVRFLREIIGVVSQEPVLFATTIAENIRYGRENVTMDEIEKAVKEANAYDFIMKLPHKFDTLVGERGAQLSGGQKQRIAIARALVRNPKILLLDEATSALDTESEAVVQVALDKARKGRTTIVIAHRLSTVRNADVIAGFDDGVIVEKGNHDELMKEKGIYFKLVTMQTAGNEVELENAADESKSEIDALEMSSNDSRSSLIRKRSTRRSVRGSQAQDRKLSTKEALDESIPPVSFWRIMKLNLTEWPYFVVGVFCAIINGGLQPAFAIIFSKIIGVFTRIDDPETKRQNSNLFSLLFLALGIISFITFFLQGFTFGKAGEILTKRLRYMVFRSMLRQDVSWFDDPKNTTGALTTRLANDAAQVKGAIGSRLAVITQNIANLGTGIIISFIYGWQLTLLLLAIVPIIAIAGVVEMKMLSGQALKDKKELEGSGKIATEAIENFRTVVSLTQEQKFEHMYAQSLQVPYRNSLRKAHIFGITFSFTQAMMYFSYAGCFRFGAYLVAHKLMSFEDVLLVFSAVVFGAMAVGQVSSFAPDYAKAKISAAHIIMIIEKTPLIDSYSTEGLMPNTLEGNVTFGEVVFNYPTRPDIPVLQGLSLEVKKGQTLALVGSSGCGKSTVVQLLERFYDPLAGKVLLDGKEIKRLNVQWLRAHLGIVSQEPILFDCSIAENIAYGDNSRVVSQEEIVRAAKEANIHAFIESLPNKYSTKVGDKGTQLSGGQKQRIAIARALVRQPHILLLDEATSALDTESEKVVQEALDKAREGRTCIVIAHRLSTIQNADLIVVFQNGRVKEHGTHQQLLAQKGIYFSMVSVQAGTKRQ

[5] = tested on: human duodenal organoid-derived monolayer model; assay: FaSSIF tolerability assay with lucifer yellow; assay type: in vitro ADME; details: FaSSIF pH 6.5 apical, 2 h; within individual experiments and inter-experiments

Papp at 10 μM [2] [×10⁻⁶ cm/s] | Compound | further results
 | Nn1nnc2ccccc21 [ABT, 1-aminobenzotriazole] | Effect on amount of midazolam metabolites [1]: significantly decreased; Effect on midazolam permeability [1]: significantly enhanced
> 1 | Cc1cc(=O)n(-c2ccccc2)n1C [Antipyrine] | 
> 1 | NC(=O)N1c2ccccc2C=Cc2ccccc21 [Carbamazepine] | 
> 1 | CCC1=C(C)CN(C(=O)NCCc2ccc(S(=O)(=O)NC(=O)N[C@H]3CC[C@H](C)CC3)cc2)C1=O [Glimepiride] | 
> 1 | CC(C(=O)O)c1cccc(C(=O)c2ccccc2)c1 (stereo not drawn) [Ketoprofen] | 
> 1 | COCCc1ccc(OCC(O)CNC(C)C)cc1 (stereo not drawn) [Metoprolol] | 
< 1 | Cc1onc(-c2ccccc2)c1C(=O)N[C@@H]1C(=O)N2[C@@H]1SC(C)(C)[C@@H]2C(=O)O [Oxacillin] | 
> 1 | O=C(O)C[C@H](O)C[C@H](O)/C=C/c1c(C2CC2)nc2ccccc2c1-c1ccc(F)cc1 [Pitavastatin] | 
> 1 | CC(C)NCC(O)COc1cccc2ccccc12 (stereo not drawn) [Propranolol] | 
 | O=C(c1ccc(OCCN2CCCCC2)cc1)c1c(-c2ccc(O)cc2)sc2cc(O)ccc12 [Raloxifene] | Metabolism by UGT [3]: mostly found to be metabolized to glucuronide
> 1 | CN(CCOc1ccc(CC2SC(=O)NC2=O)cc1)c1ccccn1 (stereo not drawn) [Rosiglitazone] | 
 | CN(C)C(=O)C(CCN1CCC(O)(c2ccc(Cl)cc2)CC1)(c1ccccc1)c1ccccc1 [loperamide] | Effect on generation of SN-38 from irinotecan [4]: significantly inhibited
 | O[C@@H](COc1cccc2ncccc12)CN1CCN([C@@H]2c3ccccc3[C@@H]3[C@H](c4ccccc42)C3(F)F)CC1 [zosquidar, zosuquidar] | Effect on transport of P-gp substrate digoxin (P-gp): canceled
 | lucifer yellow | Papp of lucifer yellow [5]: below 1.0 × 10^–6 cm/s
